Data reported in patent publication US8318736B2, “HIV inhibiting 5,6-substituted pyrimidines” (Janssen R&D Ireland, priority 2006, dated 2012).

Columns and labels:
HIV strain K103N + Y181C [1] = test: microbe, parasite or virus in culture; type: cell-based, HIV-1; conditions: Human immunodeficiency virus 1, 72 h, read-out: K103N + Y181C pEC50 (-log EC50) (converted)
Description: (§2) The ratio of CC50 to EC50 is defined as the selectivity index (SI) and is an indication of the selectivity of the anti-HIV activity of the inhibitor. The ultimate monitoring of HIV-1 infection and cytotoxicity was done using a scanning microscope. Image analysis allowed very sensitive detection of viral infection. Measurements were done before cell necrosis, which usually takes place about five days after infection, in particular measurements were performed three days after infection.

[2] = tested on: HIV strain MDR (L100I, K103N, Y181C, E138G, V1791, L2214F, V278V/I and A327A/V in HIV reverse transcriptase); test: microbe, parasite or virus in culture; type: cell-based, HIV-1; conditions: Human immunodeficiency virus 1, read-out: MDR pEC50 (-log EC50) (converted)
Description: (§1) Image analysis allowed very sensitive detection of viral infection.
“MDR” refers to a strain that contains mutations L100I, K103N, Y181C, E138G, V1791, L2214F, V278V/I and A327A/V in HIV reverse transcriptase.

HIV strain K103N + Y181C [3] = tested on: HIV strain K103N + Y181C (second column with this head); test: microbe, parasite or virus in culture; type: cell-based, HIV-1; conditions: Human immunodeficiency virus 1, 72 h, read-out: K103N + Y181C pEC50 (-log EC50) (converted)
Description: as §2

HIV strain L100I + K103N = test: microbe, parasite or virus in culture; type: cell-based, HIV-1; conditions: Human immunodeficiency virus 1, 72 h, read-out: L100I + K103N pEC50 (-log EC50) (converted)
Description: as §1

[4] = tested on: HIV strain IIIB (wild type); test: microbe, parasite or virus in culture; conditions: for EC50: Human immunodeficiency virus 1, IIIB, 72 h, read-out: IIIB pEC50 (-log EC50) (converted); for pSI (IIIB) (-log SI; SI = ratio of CC50 to EC50): strain IIIB, CC50 in mock-infected MT4 CMV-EGFP cells
Description: Compounds of the invention were tested for their potency against wild type virus and clinically isolated HIV strains harboring one or more mutations associated with resistance to reverse transcriptase inhibitors. Antiviral activity was evaluated using a cellular assay performed according to the following procedure.
The human T-cell line MT4 was engineered with Green Fluorescent Protein (GFP) and a HIV-specific promoter, HIV-1 long terminal repeat (LTR). This cell line, designated MT4 LTR-EGFP, can be used for the in vitro evaluation of anti-HIV activity of investigational compounds. In HIV-1 infected cells, the Tat protein is produced, which upregulates the LTR promotor and eventually leads to stimulation of the GFP reporter production, allowing to measure ongoing HIV-infection fluorometrically.
Analogously, MT4 cells were engineered with GFP and the constitutional cytomegalovirus (CMV) promotor. This cell line was designated MT4 CMV-EGFP, and can be used for the in vitro evaluation of cytotoxicity of investigational compounds. […] Cytotoxic investigational compounds reduce GFP levels of mock-infected MT4 CMV-EGFP cells.
The ratio of CC50 to EC50 is defined as the selectivity index (SI) and is an indication of the selectivity of the anti-HIV activity of the inhibitor. The ultimate monitoring of HIV-1 infection and cytotoxicity was done using a scanning microscope. […] Measurements were done before cell necrosis, which usually takes place about five days after infection, in particular measurements were performed three days after infection.
The columns IIIB, L100I, etc. in the table list the pEC50 (−log EC50) values against various strains IIIB, L100I, etc.; pSI lists the −log SI values.
Strain IIIB is wild type HIV strain.

For `COCc1nc(Nc2ccc(C#N)cc2)nc(Nc2ccc(/C=C/C#N)cc2)c1/C=C/c1ccc(C)cc1`, the melting point was 139 °C.

In the case of `COCc1nc(Nc2ccc(C#N)cc2)nc(Nc2ccc(/C=C/C#N)cc2)c1/C=C/c1ccc(OC)cc1`, the melting point is reported as 207 °C.

`C=C(OCC)c1c(COC)nc(Nc2ccc(C#N)cc2)nc1Nc1ccc(/C=C/C#N)cc1` showed a melting point of 102 °C.

Molecule `COCc1nc(Nc2ccc(C#N)cc2)nc(Nc2ccc(/C=C/C#N)cc2)c1C#Cc1cccnc1` has a melting point of 210 °C.

`COCc1nc(Nc2ccc(C#N)cc2)nc(Nc2c(C)cc(/C=C/C#N)cc2C)c1-c1cnccc1OC` [Compound 1] gave a melting point of 120 °C, an EC50 (HIV strain K103N + Y181C [1]) of 93.3 nM and an EC50 [2] of 2400 nM. For the same molecule, the EC50 (HIV strain K103N + Y181C [3]) was 83.2 nM, the EC50 (HIV strain L100I + K103N) was 63.1 nM and the EC50 [4] was 12.9 nM. The “pSI (IIIB) (-log SI; SI = ratio of CC50 to EC50)” value [4] was greater than 3.28.

Molecule `COCc1nc(Nc2ccc(C#N)cc2)nc(Nc2c(C)cc(/C=C/C#N)cc2C)c1-c1cccnc1` [Compound 2] has a melting point of 216 °C, an EC50 (HIV strain K103N + Y181C [1]) of 21.4 nM and an EC50 [2] of 240 nM. The EC50 (HIV strain K103N + Y181C [3]) was 15.8 nM, the EC50 (HIV strain L100I + K103N) was 4.17 nM and the EC50 [4] was 3.02 nM. The “pSI (IIIB) (-log SI; SI = ratio of CC50 to EC50)” value [4] was 3.65.

For `COCc1nc(Nc2ccc(C#N)cc2)nc(Nc2c(C)cc(/C=C/C#N)cc2C)c1-c1ccncc1` [Compound 3], the melting point was 172 °C, the EC50 (HIV strain K103N + Y181C [1]) was 29.5 nM and the EC50 [2] was 355 nM. For the same molecule, the EC50 (HIV strain K103N + Y181C [3]) was 22.4 nM, the EC50 (HIV strain L100I + K103N) was 9.33 nM and the EC50 [4] was 3.31 nM. For the same molecule, the “pSI (IIIB) (-log SI; SI = ratio of CC50 to EC50)” value [4] was greater than 3.88.

Molecule `COCc1nc(Nc2ccc(C#N)cc2)nc(Nc2c(C)cc(/C=C/C#N)cc2C)c1-c1cccs1` [Compound 4] has a melting point of 130 °C, an EC50 (HIV strain K103N + Y181C [1]) of 15.5 nM and an EC50 [2] of 138 nM. For the same molecule, the EC50 (HIV strain K103N + Y181C [3]) was 18.6 nM, the EC50 (HIV strain L100I + K103N) was 3.8 nM and the EC50 [4] was 4.57 nM. The “pSI (IIIB) (-log SI; SI = ratio of CC50 to EC50)” value [4] was 3.73.

`COCc1nc(Nc2ccc(C#N)cc2)nc(Nc2c(C)cc(/C=C/C#N)cc2C)c1-c1ccsc1` [Compound 5] gave a melting point of 125 °C, an EC50 (HIV strain K103N + Y181C [1]) of 21.4 nM and an EC50 [2] of 324 nM. For the same molecule, the EC50 (HIV strain K103N + Y181C [3]) was 25.1 nM, the EC50 (HIV strain L100I + K103N) was 5.01 nM and the EC50 [4] was 4.37 nM. For the same molecule, the “pSI (IIIB) (-log SI; SI = ratio of CC50 to EC50)” value [4] was greater than 3.76.

Work on `COCc1nc(Nc2ccc(C#N)cc2)nc(Nc2c(C)cc(/C=C/C#N)cc2C)c1-c1ccco1` [Compound 6] yielded a melting point of 105 °C, an EC50 (HIV strain K103N + Y181C [1]) of 16.6 nM and an EC50 [2] of 89.1 nM. It also gave an EC50 (HIV strain K103N + Y181C [3]) of 17.4 nM, an EC50 (HIV strain L100I + K103N) of 3.63 nM and an EC50 [4] of 3.63 nM. The “pSI (IIIB) (-log SI; SI = ratio of CC50 to EC50)” value [4] was 3.61.

Work on `COCc1nc(Nc2ccc(C#N)cc2)nc(Nc2c(C)cc(/C=C/C#N)cc2C)c1-c1ccoc1` [Compound 7] yielded a melting point of 122 °C, an EC50 (HIV strain K103N + Y181C [1]) of 12.3 nM and an EC50 [2] of 91.2 nM. It also gave an EC50 (HIV strain K103N + Y181C [3]) of 12.6 nM, an EC50 (HIV strain L100I + K103N) of 2.4 nM and an EC50 [4] of 3.72 nM. The “pSI (IIIB) (-log SI; SI = ratio of CC50 to EC50)” value [4] was 3.75.

With `C=CC(O)c1c(COC)nc(Nc2ccc(C#N)cc2)nc1Nc1c(C)cc(/C=C/C#N)cc1C` (centres unmarked) [Compound 36] the EC50 (HIV strain K103N + Y181C [1]) was 8.71 nM, the EC50 [2] was 66.1 nM and the EC50 (HIV strain K103N + Y181C [3]) was 12.6 nM. The EC50 (HIV strain L100I + K103N) was 3.47 nM, the EC50 [4] was 2.63 nM and the “pSI (IIIB) (-log SI; SI = ratio of CC50 to EC50)” value [4] was 3.85.

Molecule `COCc1nc(Nc2ccc(C#N)cc2)nc(Nc2c(C)cc(/C=C/C#N)cc2C)c1C(C)O` (centres unmarked) [Compound 37] has an EC50 (HIV strain K103N + Y181C [1]) of 6.03 nM, an EC50 [2] of 105 nM and an EC50 (HIV strain K103N + Y181C [3]) of 11.5 nM. For the same molecule, the EC50 (HIV strain L100I + K103N) was 2.45 nM, the EC50 [4] was 1.45 nM and the “pSI (IIIB) (-log SI; SI = ratio of CC50 to EC50)” value [4] was 3.95.

Molecule `COCc1nc(Nc2ccc(C#N)cc2)nc(Nc2c(C)cc(/C=C/C#N)cc2C)c1C(O)c1nccs1` (centres unmarked) [Compound 38] has an EC50 (HIV strain K103N + Y181C [1]) of 12.3 nM, an EC50 [2] of 174 nM and an EC50 (HIV strain K103N + Y181C [3]) of 12 nM. For the same molecule, the EC50 (HIV strain L100I + K103N) was 3.72 nM, the EC50 [4] was 2.69 nM and the “pSI (IIIB) (-log SI; SI = ratio of CC50 to EC50)” value [4] was 3.81.
